The record followed here is patent publication US12559529B2, “NPY2 receptor agonists” (Boehringer Ingelheim International GmbH, priority 2019, dated 2026).

*1 amine or outer side, *2 acyl side, *3 side chain or, on linkers, in order; H or OH if unused. Where a SMILES comes first, the peptide text is derived from it. Side-chain parts run from the residue outwards. The star is where a group is joined. C18 diacid = O=C(O)CCCCCCCCCCCCCCCCC(=O)*; γGlu = O=C(O)[C@H](CCC(=O)[*:2])N[*:1]; Isovaleryl = CC(C)CC(=O)*; AEEA = NCCOCCOCC(=O)O

In this experiment the target is T1, Human Neuropeptide Y2 Receptor (Homo sapiens, UniProt P49146).
T1 construct: purchased CHEMICON HTS066M
T1 sequence (P49146 1-381): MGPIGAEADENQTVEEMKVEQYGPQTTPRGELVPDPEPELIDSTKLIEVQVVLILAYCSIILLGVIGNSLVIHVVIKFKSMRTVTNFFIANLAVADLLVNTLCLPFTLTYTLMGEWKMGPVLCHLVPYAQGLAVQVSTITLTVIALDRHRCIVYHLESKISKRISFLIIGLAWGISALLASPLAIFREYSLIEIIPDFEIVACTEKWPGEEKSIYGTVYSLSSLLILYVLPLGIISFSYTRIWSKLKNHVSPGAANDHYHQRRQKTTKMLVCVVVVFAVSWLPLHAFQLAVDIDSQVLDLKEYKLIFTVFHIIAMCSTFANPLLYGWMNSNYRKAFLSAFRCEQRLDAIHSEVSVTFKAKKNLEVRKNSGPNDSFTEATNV
The experiment can be described thus: Radioligand binding competition assay (RLB). The following applies: Table 3; human 125I-PYY (1-36) 0.02 nM, Y2 receptor membranes; read-out: Ki. The method, boiled down: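 Competition binding at commercial human NPY Y2 membrane preparations, 0.5 μg protein per well, 2 h incubation at room temperature. Bound and free ligand were separated on GF/C filters and counted; IC50 was fitted by nonlinear regression.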
`CC(C)CC(=O)N[C@@H](C)C(=O)N1CCC[C@H]1C(=O)N[C@@H](CCC(=O)O)C(=O)N[C@@H](CCCCNC(=O)COCCOCCNC(=O)COCCOCCNC(=O)CC[C@H](NC(=O)CCCCCCCCCCCCCCCCC(=O)O)C(=O)O)C(=O)N1CCC[C@H]1C(=O)N[C@@H](CCC(=O)O)C(=O)N[C@@H](CCC(=O)O)C(=O)N[C@@H](CC(=O)O)C(=O)N[C@@H](C)C(=O)N[C@@H](CO)C(=O)N1CCC[C@H]1C(=O)N[C@@H](CCC(=O)O)C(=O)N[C@@H](CCC(=O)O)C(=O)N[C@H](C(=O)N[C@@H](CCC(N)=O)C(=O)N[C@@H](CCCNC(=N)N)C(=O)N[C@@H](Cc1ccc(O)cc1)C(=O)N[C@@H](Cc1ccc(O)cc1)C(=O)N[C@H](C(=O)N[C@@H](CO)C(=O)N[C@@H](CC(C)C)C(=O)N[C@@H](CCCNC(=N)N)C(=O)N[C@@H](Cc1c[nH]cn1)C(=O)N[C@@H](Cc1ccc(O)cc1)C(=O)N[C@@H](Cc1ccc(O)cc1)C(=O)N[C@@H](CC(N)=O)C(=O)N[C@@H](Cc1c[nH]c2ccccc12)C(=O)N[C@@H](CC(C)C)C(=O)N[C@H](C(=O)N[C@@H](CCCNC(=N)N)C(=O)N[C@@H](CCC(N)=O)C(=O)N[C@@H](CCCNC(=N)N)C(=O)N[C@@H](Cc1ccc(O)cc1)C(N)=O)[C@@H](C)O)C(C)C)[C@@H](C)O` [Compound 155, N{alpha-4}-(3-methylbutanoyl)-N{epsilon-7}-[2-(2-{2-[2-(2-{2-[(4S)-4-carboxy-4-(17-carboxyheptadecanamido)butanamido]ethoxy}ethoxy)acetamido]ethoxy}ethoxy)acetamido]-[4A,7K,9E,17T,18Q,22V,28Y,30W,31L]hPYY (4-36)]: the Ki came out at 2.05 nM. In the case of `CC(C)CC(=O)N[C@@H](C)C(=O)N1CCC[C@H]1C(=O)N[C@@H](CCC(=O)O)C(=O)N[C@@H](CCCCNC(=O)COCCOCCNC(=O)COCCOCCNC(=O)CC[C@H](NC(=O)CCCCCCCCCCCCCCCCC(=O)O)C(=O)O)C(=O)N1CCC[C@H]1C(=O)N[C@@H](CCC(=O)O)C(=O)N[C@@H](CCC(=O)O)C(=O)N[C@@H](CC(=O)O)C(=O)N[C@@H](C)C(=O)N[C@@H](CO)C(=O)N1CCC[C@H]1C(=O)N[C@@H](CCC(=O)O)C(=O)N[C@@H](CCC(=O)O)C(=O)N[C@@H](CC(C)C)C(=O)N[C@@H](CCC(N)=O)C(=O)N[C@@H](CCCNC(=N)N)C(=O)N[C@@H](Cc1ccc(O)cc1)C(=O)N[C@@H](Cc1ccc(O)cc1)C(=O)N[C@H](C(=O)N[C@@H](CO)C(=O)N[C@@H](CC(C)C)C(=O)N[C@@H](CCCNC(=N)N)C(=O)N[C@@H](Cc1c[nH]cn1)C(=O)N[C@@H](Cc1ccc(O)cc1)C(=O)N[C@@H](Cc1c[nH]c2ccccc12)C(=O)N[C@@H](CC(N)=O)C(=O)N[C@@H](Cc1ccc(O)cc1)C(=O)N[C@@H](CC(C)C)C(=O)N[C@H](C(=O)N[C@@H](CCCNC(=N)N)C(=O)N[C@@H](CCC(N)=O)C(=O)N[C@@H](CCCNC(=N)N)C(=O)N[C@@H](Cc1ccc(O)cc1)C(N)=O)[C@@H](C)O)C(C)C` [Compound 158, N{alpha-4}-(3-methylbutanoyl)-N{epsilon-7}-[2-(2-{2-[2-(2-{2-[(4S)-4-carboxy-4-(17-carboxyheptadecanamido)butanamido]ethoxy}ethoxy)acetamido]ethoxy}ethoxy)acetamido]-[4A,7K,9E,18Q,22V,28W,30Y,31L]hPYY (4-36)] (Isovaleryl-APEK([AEEA-AEEA-γGlu-C18 diacid])PEEDASPEELQRYYVSLRHYWNYLTRQRY-NH2), the Ki came to 4.43 nM.

On to `CC(C)CC(=O)N[C@@H](C)C(=O)N1CCC[C@H]1C(=O)N[C@@H](CCC(=O)O)C(=O)N[C@@H](CCCCNC(=O)COCCOCCNC(=O)COCCOCCNC(=O)CC[C@H](NC(=O)CCCCCCCCCCCCCCCCC(=O)O)C(=O)O)C(=O)N1CCC[C@H]1C(=O)N[C@@H](CCC(=O)O)C(=O)N[C@@H](C)C(=O)N[C@@H](CC(=O)O)C(=O)N[C@@H](C)C(=O)N[C@@H](CCC(=O)O)C(=O)N1CCC[C@H]1C(=O)N[C@@H](CCC(=O)O)C(=O)N[C@@H](CCC(=O)O)C(=O)N[C@@H](CC(C)C)C(=O)N[C@@H](CCC(N)=O)C(=O)N[C@@H](CCCNC(=N)N)C(=O)N[C@@H](Cc1ccc(O)cc1)C(=O)N[C@@H](Cc1ccc(O)cc1)C(=O)N[C@H](C(=O)N[C@@H](CO)C(=O)N[C@@H](CC(C)C)C(=O)N[C@@H](CCCNC(=N)N)C(=O)N[C@@H](Cc1c[nH]cn1)C(=O)N[C@@H](Cc1ccc(O)cc1)C(=O)N[C@@H](Cc1ccc(O)cc1)C(=O)N[C@@H](CC(N)=O)C(=O)N[C@@H](Cc1c[nH]c2ccccc12)C(=O)N[C@@H](CC(C)C)C(=O)N[C@H](C(=O)N[C@@H](CCCNC(=N)N)C(=O)N[C@@H](CCC(N)=O)C(=O)N[C@@H](CCCNC(=N)N)C(=O)N[C@@H](Cc1ccc(O)cc1)C(N)=O)[C@@H](C)O)[C@@H](C)O` [Compound 160, N{alpha-4}-(3-methylbutanoyl)-N{epsilon-7}-[2-(2-{2-[2-(2-{2-[(4S)-4-carboxy-4-(17-carboxyheptadecanamido)butanamido]ethoxy}ethoxy)acetamido]ethoxy}ethoxy)acetamido]-[4A,7K,9E,10A,13E,18Q,22T,28Y,30W,31L]hPYY (4-36)] (Isovaleryl-APEK([AEEA-AEEA-γGlu-C18 diacid])PEADAEPEELQRYYTSLRHYYNWLTRQRY-NH2), for which the Ki turned out to be 2 nM. Then `CC(C)CC(=O)N[C@@H](C)C(=O)N1CCC[C@H]1C(=O)N[C@@H](CCC(=O)O)C(=O)N[C@@H](CCCCNC(=O)COCCOCCNC(=O)COCCOCCNC(=O)CC[C@H](NC(=O)CCCCCCCCCCCCCCCCC(=O)O)C(=O)O)C(=O)N1CCC[C@H]1C(=O)N[C@@H](CCC(=O)O)C(=O)N[C@@H](CCC(=O)O)C(=O)N[C@@H](CC(=O)O)C(=O)N[C@@H](C)C(=O)N[C@@H](CO)C(=O)N1CCC[C@H]1C(=O)N[C@@H](CCC(=O)O)C(=O)N[C@@H](CCC(=O)O)C(=O)N[C@@H](CC(C)C)C(=O)N[C@@H](CCC(N)=O)C(=O)N[C@@H](CCCNC(=N)N)C(=O)N[C@@H](Cc1ccc(O)cc1)C(=O)N[C@@H](CCC(N)=O)C(=O)N[C@H](C(=O)N[C@@H](CO)C(=O)N[C@@H](CC(C)C)C(=O)N[C@@H](CCCNC(=N)N)C(=O)N[C@@H](Cc1c[nH]cn1)C(=O)N[C@@H](Cc1ccc(O)cc1)C(=O)N[C@@H](Cc1ccc(O)cc1)C(=O)N[C@@H](CC(N)=O)C(=O)N[C@@H](Cc1c[nH]c2ccccc12)C(=O)N[C@@H](CC(C)C)C(=O)N[C@H](C(=O)N[C@@H](CCCNC(=N)N)C(=O)N[C@@H](CCC(N)=O)C(=O)N[C@@H](CCCNC(=N)N)C(=O)N[C@@H](Cc1ccc(O)cc1)C(N)=O)[C@@H](C)O)C(C)C` [Compound 165, N{alpha-4}-(3-methylbutanoyl)-N{epsilon-7}-[2-(2-{2-[2-(2-{2-[(4S)-4-carboxy-4-(17-carboxyheptadecanamido)butanamido]ethoxy}ethoxy)acetamido]ethoxy}ethoxy)acetamido]-[4A,7K,9E,18Q,21Q,22V,28Y,30W,31L]hPYY (4-36)], with 2.49 nM; and `CC(C)CC(=O)N[C@@H](C)C(=O)N1CCC[C@H]1C(=O)N[C@@H](CCC(=O)O)C(=O)N[C@@H](CCCCNC(=O)COCCOCCNC(=O)COCCOCCNC(=O)CC[C@H](NC(=O)CCCCCCCCCCCCCCCCC(=O)O)C(=O)O)C(=O)N1CCC[C@H]1C(=O)N1CCC[C@H]1C(=O)N[C@@H](C)C(=O)N[C@@H](CC(=O)O)C(=O)N[C@@H](C)C(=O)N[C@@H](CO)C(=O)N1CCC[C@H]1C(=O)N[C@@H](CCC(=O)O)C(=O)N[C@@H](CCC(=O)O)C(=O)N[C@@H](CC(C)C)C(=O)N[C@@H](CCC(N)=O)C(=O)N[C@@H](CCCNC(=N)N)C(=O)N[C@@H](Cc1ccc(O)cc1)C(=O)N[C@@H](Cc1ccc(O)cc1)C(=O)N[C@H](C(=O)N[C@@H](CCC(=O)O)C(=O)N[C@@H](CC(C)C)C(=O)N[C@@H](CCCNC(=N)N)C(=O)N[C@@H](Cc1c[nH]cn1)C(=O)N[C@@H](Cc1ccc(O)cc1)C(=O)N[C@@H](Cc1ccc(O)cc1)C(=O)N[C@@H](CC(N)=O)C(=O)N[C@@H](Cc1c[nH]c2ccccc12)C(=O)N[C@@H](CC(C)C)C(=O)N[C@H](C(=O)N[C@@H](CCCNC(=N)N)C(=O)N[C@@H](CCC(N)=O)C(=O)N[C@@H](CCCNC(=N)N)C(=O)N[C@@H](Cc1ccc(O)cc1)C(N)=O)[C@@H](C)O)C(C)C` [Compound 166, N{alpha-4}-(3-methylbutanoyl)-N{epsilon-7}-[2-(2-{2-[2-(2-{2-[(4S)-4-carboxy-4-(17-carboxyheptadecanamido)butanamido]ethoxy}ethoxy)acetamido]ethoxy}ethoxy)acetamido]-[4A,7K,9P,10A,18Q,22V,23E,28Y,30W,31L]hPYY (4-36)], with 0.66 nM.
